The values that follow come from US20230091671A1 (priority 2020, published 2023).

The conditions of series [1]: cited from earlier work.
For series [2] the following is noted: cited from earlier work. The source holds these as a separate data set.
The conditions of series [3]: in vivo; cited from earlier work.
The next series addresses T1, α1-AR 1D (Homo sapiens, UniProt P25100).
T1 construct: expressed in transfected cells; host or cells: HEK-293
T1 sequence (P25100 1-572): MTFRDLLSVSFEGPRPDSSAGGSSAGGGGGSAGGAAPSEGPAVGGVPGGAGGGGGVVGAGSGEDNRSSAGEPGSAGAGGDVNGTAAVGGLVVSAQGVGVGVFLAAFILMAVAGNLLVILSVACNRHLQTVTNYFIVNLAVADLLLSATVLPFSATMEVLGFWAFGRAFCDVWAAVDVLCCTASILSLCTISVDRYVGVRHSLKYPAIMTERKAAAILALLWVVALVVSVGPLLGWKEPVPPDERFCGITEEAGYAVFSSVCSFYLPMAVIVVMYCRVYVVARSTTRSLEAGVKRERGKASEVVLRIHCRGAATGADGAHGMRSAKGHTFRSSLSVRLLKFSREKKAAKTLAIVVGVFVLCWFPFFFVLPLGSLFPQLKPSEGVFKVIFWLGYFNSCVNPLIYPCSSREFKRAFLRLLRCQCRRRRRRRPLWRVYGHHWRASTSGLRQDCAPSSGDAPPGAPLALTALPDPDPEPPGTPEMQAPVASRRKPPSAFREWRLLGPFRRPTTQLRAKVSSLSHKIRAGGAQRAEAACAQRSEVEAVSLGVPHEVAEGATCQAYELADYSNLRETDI
It counts as binding.

For series [4], the target named is T2, 1A subtype (α-1 adrenergic receptor) (Homo sapiens, UniProt P35348).
T2 sequence (P35348 1-466): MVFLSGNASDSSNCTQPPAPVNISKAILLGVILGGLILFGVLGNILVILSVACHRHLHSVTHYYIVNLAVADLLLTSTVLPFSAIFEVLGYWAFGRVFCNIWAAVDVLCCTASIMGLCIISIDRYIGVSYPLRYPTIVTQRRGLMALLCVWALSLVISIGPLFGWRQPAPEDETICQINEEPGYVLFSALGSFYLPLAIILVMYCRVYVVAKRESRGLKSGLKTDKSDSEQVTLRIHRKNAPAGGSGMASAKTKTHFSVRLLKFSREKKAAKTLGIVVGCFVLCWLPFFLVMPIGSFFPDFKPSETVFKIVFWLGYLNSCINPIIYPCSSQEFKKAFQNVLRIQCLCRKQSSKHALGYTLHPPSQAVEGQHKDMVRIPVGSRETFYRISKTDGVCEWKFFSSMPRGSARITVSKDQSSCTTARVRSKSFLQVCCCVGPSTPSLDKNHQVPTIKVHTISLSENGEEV
Particulars: cited from earlier work.

The subject of series [5] is VC and laryngeal muscles/laryngospasm. Particulars: rat model; cited from earlier work.
Where [6] appears, read: recommended single intravenous injection.
The mark [7] stands for this setting: single intramuscular and intravenous doses.
[8] abbreviates: subcutaneous injection of 10 mg.

Where a name gives a salt, the structure may show the parent alone.

On to `COc1cc2nc(N(C)CCCNC(=O)C3CCCO3)nc(N)c2cc1OC.Cl` (racemic) [ALFUZOSIN, (R,S)-N-[3-[(4-amino-6,7-dimethoxy-2-quinazolinyl)methylamino]propyl]tetrahydro-2-furancarboxamide hydrochloride], for which, in series [1] (clinical test subjects), the dizziness is recorded as 6%, the hypotension is 0.4% and the syncope was 0.2%.
`COc1cc2nc(N3CCN(C(=O)C4CCCO4)CC3)nc(N)c2cc1OC.Cl` (racemic) [TERAZOSIN, (RS)-Piperazine,1-(4-amino-6,7-dimethoxy-2-quinazolinyl)-4-[(tetra-hydro-2-furanyl)carbonyl]-, monohydrochloride, dihydrate]: the syncope in series [1] (clinical test subjects) is recorded as 0.6%. Also, the postural hypotension in series [1] (trial of 600 subjects) was 4%.
For the molecule `CCN1CC(CCN2CCOCC2)C(c2ccccc2)(c2ccccc2)C1=O` (stereo not drawn) [Doxapram hydrochloride, 1-ethyl-4-[2-(4-morpholinyl)ethyl]-3,3-diphenyl-2-pyrrolidinone monohydrochloride, monohydrate], in series [2] (setting [6]), the duration of effect is 5 to 12 min, the “onset of respiratory stimulation” value is 20 to 40 s and the “time of peak effect” value was 1 to 2 min.
For `O=C(CCCN1CC=C(n2c(=O)[nH]c3ccccc32)CC1)c1ccc(F)cc1` [Droperidol, 1-[1-[3-(p-Fluorobenzoyl)propyl]-1,2,3,6-tetrahydro-4-pyridyl]-2-benzimidazolinone], in series [2] (human, in vivo), the “duration of the tranquilizing and sedative effects” value was “two to four hours”; the “persistence of alteration of alertness” value is “as long as twelve hours”. In addition, in series [2] (setting [7]), the onset of action result is listed as “three to ten minutes” and the “time until peak effect apparent” value is on record as “up to thirty minutes”.
As to `CCC(=O)C(CC(C)N(C)C)(c1ccccc1)c1ccccc1` (stereo not drawn) [Methadone], the “metabolism (enzymes / pathway)” value in series [3] was “CYP3A4, CYP2B6 and CYP2D6”.
Turning to `NC[C@H](O)c1ccc(O)c(O)c1` [NE], the “affinity and potency at α1-AR 1D compared with other subtypes” value on α1-AR 1D is “highest affinity and potency”.
On to `CN1CCC[C@H]1c1cccnc1` [Nicotine], for which, in series [3], the “crossing of the blood brain barrier” value was “crosses the blood-brain barrier”; the “elimination half-life in the body” value is recorded as “around two hours”; the half-life – broadly, the time needed for the level to fall by half in the phase considered – is 1 to 2 h; the route of excretion entry is reported as “primarily excreted in urine”. The “time to reach the brain after inhalation” value in series [3] is 10 to 20 s.
For `COc1cc2nc(N3CCN(C(=O)c4ccco4)CC3)nc(N)c2cc1OC.Cl` [PRAZOSIN, 1-(4-amino-6,7-dimethoxy-2-quinazolinyl)-4-(2-furoyl) piperazine], the “Syncope and symptoms of hypotension, share of subjects receiving” value in series [1] (1 mg BID/TID titrated up to 20 mg total QD) is listed as 6-12%.
In the case of `C[C@H](Cc1cc2c(c(C(N)=O)c1)N(CCCO)CC2)NCCOc1ccccc1OCC(F)(F)F` [SILODOSIN, (3-Hydroxypropyl)-5-[(2R)-2-({2-[2-(2,2,2trifluoroethoxy)phenoxy]ethyl}amino)propyl]-2,3-dihydro-1H-indole-7-carboxamide], in series [1] (Study of 897 subjects, 8 mg QD), the “Dizziness and orthostatic hypotension” value is 3%; the “subjects with syncope / subjects in study” value is on record as 1/897.
For `CCOc1ccccc1OCCN[C@H](C)Cc1ccc(OC)c(S(N)(=O)=O)c1` [TAMSULOSIN, (-)-(R)-5-[2-[[2-(o-Ethoxyphenoxy)ethyl]amino]propyl]-2-methoxybenzenesulfon-amide, monohydrochloride], the “greater binding affinity at the 1A subtype over other α-1 antagonists” value in series [4] is 12-30 times. For the same molecule, the “incidence of hypotension, syncope, vertigo” value in series [1] (Dose (0.4-0.8 mg QD)) is on record as 0.2%-0.6%.
Regarding `C=CCN1CC[C@]23c4c5ccc(O)c4O[C@H]2C(=O)CC[C@@]3(O)[C@H]1C5.Cl` [naloxone, 17-Allyl-4,5α-epoxy-3,14-dihydroxymorphinan-6-one hydrochloride], the “dose at which naloxone has an effect” value in series [5] was above 0.8 mg/kg.
For `CC[C@@H]1C(=O)OC[C@@H]1Cc1cncn1C` [pilocarpine HCl], in series [2] (setting [8]), the salivation was 1 L and the sweating is 0.5 to 1.0 L.
